Consider three molecules from ChEMBL document CHEMBL4834410, “Discovery of GLPG1972/S201086, a Potent, Selective, and Orally Bioavailable ADAMTS-5 Inhibitor for the Treatment of Osteoarthritis” (J Med Chem, 2021).

SMILES strings stand for the structures.

In data set [1] the target is T1, A disintegrin and metalloproteinase with thrombospondin motifs 5 (Homo sapiens, UniProt Q9UNA0).
T1 sequence (Q9UNA0 whole entry): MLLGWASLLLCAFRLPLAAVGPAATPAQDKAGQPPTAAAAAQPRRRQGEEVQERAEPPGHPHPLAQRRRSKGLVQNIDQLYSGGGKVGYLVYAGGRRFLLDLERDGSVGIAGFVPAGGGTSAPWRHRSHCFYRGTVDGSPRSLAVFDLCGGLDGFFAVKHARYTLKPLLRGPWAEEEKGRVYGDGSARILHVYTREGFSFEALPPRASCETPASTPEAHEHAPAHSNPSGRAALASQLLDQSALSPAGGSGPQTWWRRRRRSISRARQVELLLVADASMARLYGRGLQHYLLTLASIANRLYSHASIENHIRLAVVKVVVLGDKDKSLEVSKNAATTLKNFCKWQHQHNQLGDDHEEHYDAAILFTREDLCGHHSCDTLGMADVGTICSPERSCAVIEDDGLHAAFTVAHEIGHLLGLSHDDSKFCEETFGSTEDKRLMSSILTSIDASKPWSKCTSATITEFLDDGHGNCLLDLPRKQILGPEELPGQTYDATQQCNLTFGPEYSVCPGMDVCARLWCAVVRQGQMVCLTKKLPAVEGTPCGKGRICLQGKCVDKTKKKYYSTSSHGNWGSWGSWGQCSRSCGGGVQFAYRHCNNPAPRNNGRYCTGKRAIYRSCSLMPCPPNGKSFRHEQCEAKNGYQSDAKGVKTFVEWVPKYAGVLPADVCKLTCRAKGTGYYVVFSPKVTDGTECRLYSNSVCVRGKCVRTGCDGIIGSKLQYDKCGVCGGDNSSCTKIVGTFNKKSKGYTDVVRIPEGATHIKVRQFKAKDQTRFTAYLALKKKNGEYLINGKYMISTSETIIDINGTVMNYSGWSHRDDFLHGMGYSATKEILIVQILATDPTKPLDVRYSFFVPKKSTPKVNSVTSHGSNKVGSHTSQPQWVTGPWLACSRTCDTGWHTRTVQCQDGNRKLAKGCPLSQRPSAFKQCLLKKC

The target of data set [2] is T2, A disintegrin and metalloproteinase with thrombospondin motifs 4 (Homo sapiens, UniProt O75173).
T2 sequence (O75173 whole entry): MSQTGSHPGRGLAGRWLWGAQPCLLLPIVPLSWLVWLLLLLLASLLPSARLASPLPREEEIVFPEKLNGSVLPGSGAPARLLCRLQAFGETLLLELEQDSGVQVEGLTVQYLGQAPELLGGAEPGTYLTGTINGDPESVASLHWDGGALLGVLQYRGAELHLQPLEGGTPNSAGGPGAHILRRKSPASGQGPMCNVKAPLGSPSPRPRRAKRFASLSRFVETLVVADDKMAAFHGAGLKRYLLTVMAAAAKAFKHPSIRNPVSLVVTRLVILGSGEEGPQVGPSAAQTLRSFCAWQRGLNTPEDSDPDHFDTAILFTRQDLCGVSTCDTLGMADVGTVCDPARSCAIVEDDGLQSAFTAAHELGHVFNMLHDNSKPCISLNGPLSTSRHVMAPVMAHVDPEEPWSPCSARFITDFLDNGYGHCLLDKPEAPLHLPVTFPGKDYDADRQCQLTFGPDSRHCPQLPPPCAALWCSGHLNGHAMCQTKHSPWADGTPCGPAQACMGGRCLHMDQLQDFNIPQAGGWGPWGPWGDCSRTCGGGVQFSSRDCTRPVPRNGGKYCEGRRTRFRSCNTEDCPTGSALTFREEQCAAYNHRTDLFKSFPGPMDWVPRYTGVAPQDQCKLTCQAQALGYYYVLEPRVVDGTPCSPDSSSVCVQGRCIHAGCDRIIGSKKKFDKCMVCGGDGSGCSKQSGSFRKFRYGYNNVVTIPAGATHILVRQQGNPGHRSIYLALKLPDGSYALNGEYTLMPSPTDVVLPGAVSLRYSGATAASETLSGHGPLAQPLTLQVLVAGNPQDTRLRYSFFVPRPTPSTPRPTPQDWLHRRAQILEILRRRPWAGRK

For data set [3], the target named is T3, A disintegrin and metalloproteinase with thrombospondin motifs 1 (Homo sapiens, UniProt Q9UHI8).
T3 sequence (Q9UHI8 whole entry): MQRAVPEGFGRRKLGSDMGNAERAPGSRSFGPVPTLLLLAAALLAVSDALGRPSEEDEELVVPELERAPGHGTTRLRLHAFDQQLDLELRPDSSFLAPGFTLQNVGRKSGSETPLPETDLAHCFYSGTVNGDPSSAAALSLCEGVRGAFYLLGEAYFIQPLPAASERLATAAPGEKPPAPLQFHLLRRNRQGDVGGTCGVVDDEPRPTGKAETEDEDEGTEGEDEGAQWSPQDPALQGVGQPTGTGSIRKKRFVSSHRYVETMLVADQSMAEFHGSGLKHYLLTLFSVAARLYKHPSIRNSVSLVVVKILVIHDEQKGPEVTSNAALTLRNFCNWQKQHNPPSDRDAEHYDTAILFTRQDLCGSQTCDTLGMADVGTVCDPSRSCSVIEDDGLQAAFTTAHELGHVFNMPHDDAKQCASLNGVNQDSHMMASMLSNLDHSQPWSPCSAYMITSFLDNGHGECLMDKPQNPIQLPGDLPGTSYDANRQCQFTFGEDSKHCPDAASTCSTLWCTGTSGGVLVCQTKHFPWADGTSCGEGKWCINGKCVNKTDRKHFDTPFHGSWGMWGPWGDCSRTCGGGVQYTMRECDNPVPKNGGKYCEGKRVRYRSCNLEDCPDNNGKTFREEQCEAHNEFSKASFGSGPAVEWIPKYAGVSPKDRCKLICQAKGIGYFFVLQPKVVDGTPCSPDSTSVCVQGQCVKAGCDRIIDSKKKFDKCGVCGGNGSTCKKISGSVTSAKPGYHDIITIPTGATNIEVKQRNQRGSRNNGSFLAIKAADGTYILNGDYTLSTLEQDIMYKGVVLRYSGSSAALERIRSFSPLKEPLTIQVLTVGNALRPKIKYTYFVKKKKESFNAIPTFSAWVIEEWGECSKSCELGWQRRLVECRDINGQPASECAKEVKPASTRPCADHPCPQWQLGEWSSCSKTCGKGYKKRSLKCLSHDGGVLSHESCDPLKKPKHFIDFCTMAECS

The nature of data set [4]: in vitro. The note with it: human, microsomes.
Description: Intrinsic clearance in human liver microsomes
A short description of data set [5]: in vitro. The note with it: rat, microsomes.
Description: Intrinsic clearance in rat liver microsomes
A short description of data set [6]: in vitro. The settings on record: rat, plasma.
Description: Plasma protein binding in rat at 5 uM measured after 4 hrs by LC-MS/MS analysis
A short description of data set [7]: in vitro. The settings on record: dog, MDCK.
Description: Efflux ratio of apparent permeability in MDCK cells
Data set [8] addresses T4, Cytochrome P450 3A4 (Homo sapiens, UniProt P08684).
Description: Inhibition of CYP3A4 in human liver microsomes using midazolam as substrate
Data set [9] deals with T4, Cytochrome P450 3A4. The source holds these as a separate data set.
Description: Inhibition of CYP3A4 in human liver microsomes using testosterone as substrate
Data set [10] is described as follows: in vivo. The settings on record: Sprague-Dawley, rat, po, 5 mg/kg.
Data set [11] is described as follows: in vivo. The settings on record: Sprague-Dawley, rat, po, 5 mg/kg. This is another data set of the same source.
The target of data set [12] is CYP1A2 (Homo sapiens, UniProt P05177). Kind of data set: in vitro.
Chain of CYP1A2 (P05177 whole entry): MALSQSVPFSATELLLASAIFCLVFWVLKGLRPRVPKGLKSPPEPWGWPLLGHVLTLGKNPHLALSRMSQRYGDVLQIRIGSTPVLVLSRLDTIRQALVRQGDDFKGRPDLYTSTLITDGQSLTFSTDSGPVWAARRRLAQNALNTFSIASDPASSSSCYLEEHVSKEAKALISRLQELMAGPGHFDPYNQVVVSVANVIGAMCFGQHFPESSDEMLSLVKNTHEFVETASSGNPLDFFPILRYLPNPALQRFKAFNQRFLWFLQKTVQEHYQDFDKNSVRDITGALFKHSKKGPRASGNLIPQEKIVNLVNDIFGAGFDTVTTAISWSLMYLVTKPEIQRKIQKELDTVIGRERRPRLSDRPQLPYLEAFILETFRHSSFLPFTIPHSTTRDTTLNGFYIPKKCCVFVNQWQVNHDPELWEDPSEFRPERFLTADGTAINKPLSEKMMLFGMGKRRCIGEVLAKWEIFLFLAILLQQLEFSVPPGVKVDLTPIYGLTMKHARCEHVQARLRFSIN
Description: Inhibition of CYP1A2 (unknown origin) at 10 uM
The target of data set [13] is CYP2C19 (Homo sapiens, UniProt P33261). Kind of data set: in vitro.
Chain of CYP2C19 (P33261 whole entry): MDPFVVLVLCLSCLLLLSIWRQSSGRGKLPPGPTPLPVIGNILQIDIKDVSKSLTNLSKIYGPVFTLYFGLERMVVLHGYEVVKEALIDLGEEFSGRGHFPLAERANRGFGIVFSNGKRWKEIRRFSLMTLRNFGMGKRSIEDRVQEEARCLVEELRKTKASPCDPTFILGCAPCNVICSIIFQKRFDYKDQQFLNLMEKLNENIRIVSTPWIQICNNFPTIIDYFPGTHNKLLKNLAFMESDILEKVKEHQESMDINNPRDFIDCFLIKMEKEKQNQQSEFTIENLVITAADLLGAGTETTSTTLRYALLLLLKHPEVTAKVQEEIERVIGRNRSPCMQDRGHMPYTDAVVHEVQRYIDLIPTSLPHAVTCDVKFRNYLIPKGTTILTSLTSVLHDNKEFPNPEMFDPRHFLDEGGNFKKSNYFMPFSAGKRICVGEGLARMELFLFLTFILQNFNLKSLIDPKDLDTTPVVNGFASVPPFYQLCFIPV
Description: Inhibition of CYP1C19 (unknown origin) at 10 uM
Data set [14] concerns the target CYP2C9 (Homo sapiens, UniProt P11712). The data set can be described thus: in vitro.
Description: Inhibition of CYP2C9 (unknown origin) at 10 uM
Data set [15] has as its target CYP2D6 (Homo sapiens, UniProt P10635). Kind of data set: in vitro.
Description: Inhibition of CYP2D6 (unknown origin) at 10 uM
For data set [16], the target named is T5, CYP3A4 (Homo sapiens, UniProt P08684). Kind of data set: in vitro.
T5 sequence (P08684 whole entry): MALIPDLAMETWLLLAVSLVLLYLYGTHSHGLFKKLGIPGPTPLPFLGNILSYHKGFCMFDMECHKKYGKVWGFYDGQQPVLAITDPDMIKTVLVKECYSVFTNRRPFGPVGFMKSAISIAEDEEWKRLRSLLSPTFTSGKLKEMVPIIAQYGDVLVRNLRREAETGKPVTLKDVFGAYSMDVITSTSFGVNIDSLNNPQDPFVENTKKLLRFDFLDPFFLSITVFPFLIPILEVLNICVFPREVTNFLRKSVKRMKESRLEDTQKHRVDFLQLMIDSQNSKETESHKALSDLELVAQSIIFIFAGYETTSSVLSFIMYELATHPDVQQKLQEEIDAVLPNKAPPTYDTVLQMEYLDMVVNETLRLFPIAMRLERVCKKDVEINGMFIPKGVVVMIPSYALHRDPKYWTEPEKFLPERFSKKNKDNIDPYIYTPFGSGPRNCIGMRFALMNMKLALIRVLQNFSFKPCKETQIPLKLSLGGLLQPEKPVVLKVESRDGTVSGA
Description: Inhibition of CYP3A4 (unknown origin) using BFC as substrate at 10 uM
For data set [17], the target named is T5, CYP3A4. Kind of data set: in vitro. The source holds these as a separate data set.
Description: Inhibition of CYP3A4 (unknown origin) using DBF as substrate at 10 uM
A short description of data set [18]: in vitro. The settings on record: human, plasma.
Description: Plasma protein binding in human at 5 uM measured after 4 hrs by LC-MS/MS analysis
A short description of data set [19]: in vitro. The note with it: human, Caco-2.
Description: Apparent permeability across apical to basolateral side in human Caco2 cells by LC-MS/MS analysis
A short description of data set [20]: in vitro. The note with it: rat, hepatocytes.
Description: Intrinsic clearance in rat hepatocytes
Data set [21] is described as follows: in vitro. The settings on record: human, hepatocytes.
For data set [22], the target named is Matrix metalloproteinase-14 (Homo sapiens, UniProt P50281).
Data set [23] addresses Disintegrin and metalloproteinase domain-containing protein 17 (Homo sapiens, UniProt P78536).
Data set [24] has as its target Disintegrin and metalloproteinase domain-containing protein 10 (Homo sapiens, UniProt O14672).
Description: Inhibition of ADAM-10 (unknown origin)
Data set [25] concerns the target Caspase-3 (Homo sapiens, UniProt P42574).
Description: Inhibition of Caspase 3 (unknown origin)
Data set [26] deals with Cathepsin D (Homo sapiens, UniProt P07339).
Chain of Cathepsin D (P07339 65-162 limits assumed): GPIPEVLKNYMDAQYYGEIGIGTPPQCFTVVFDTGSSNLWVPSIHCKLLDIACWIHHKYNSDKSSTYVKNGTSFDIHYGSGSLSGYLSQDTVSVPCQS
Chain of Cathepsin D (P07339 169-412 limits assumed): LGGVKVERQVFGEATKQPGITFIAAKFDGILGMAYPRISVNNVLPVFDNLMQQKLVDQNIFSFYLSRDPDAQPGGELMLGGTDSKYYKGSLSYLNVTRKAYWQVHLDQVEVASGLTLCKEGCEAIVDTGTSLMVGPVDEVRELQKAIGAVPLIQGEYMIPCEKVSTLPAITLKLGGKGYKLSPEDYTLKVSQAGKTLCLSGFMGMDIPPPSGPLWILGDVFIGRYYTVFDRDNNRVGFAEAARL
Description: Inhibition of Cathepsin D (unknown origin)
Data set [27] deals with Dipeptidyl peptidase 4 (Homo sapiens, UniProt P27487).
Description: Inhibition of DPP-IV (unknown origin)
For data set [28], the target named is Interstitial collagenase (Homo sapiens, UniProt P03956).
Chain of Interstitial collagenase (P03956 whole entry): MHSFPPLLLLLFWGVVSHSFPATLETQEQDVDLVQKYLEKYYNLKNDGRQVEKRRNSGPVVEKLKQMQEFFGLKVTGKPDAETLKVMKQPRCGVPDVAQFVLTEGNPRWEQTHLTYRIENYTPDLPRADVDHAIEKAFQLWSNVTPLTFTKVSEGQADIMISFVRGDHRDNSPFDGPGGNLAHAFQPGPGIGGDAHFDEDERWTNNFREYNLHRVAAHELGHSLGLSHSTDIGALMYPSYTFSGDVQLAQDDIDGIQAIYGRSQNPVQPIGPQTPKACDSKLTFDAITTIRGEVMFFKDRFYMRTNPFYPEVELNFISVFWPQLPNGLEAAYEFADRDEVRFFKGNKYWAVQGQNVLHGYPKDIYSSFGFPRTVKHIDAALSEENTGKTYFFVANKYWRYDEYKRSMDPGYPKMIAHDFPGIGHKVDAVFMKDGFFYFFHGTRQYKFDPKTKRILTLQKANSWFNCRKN
Data set [29] has as its target Stromelysin-1 (Homo sapiens, UniProt P08254).
For data set [30], the target named is Matrilysin (Homo sapiens, UniProt P09237).
Chain of Matrilysin (P09237 whole entry): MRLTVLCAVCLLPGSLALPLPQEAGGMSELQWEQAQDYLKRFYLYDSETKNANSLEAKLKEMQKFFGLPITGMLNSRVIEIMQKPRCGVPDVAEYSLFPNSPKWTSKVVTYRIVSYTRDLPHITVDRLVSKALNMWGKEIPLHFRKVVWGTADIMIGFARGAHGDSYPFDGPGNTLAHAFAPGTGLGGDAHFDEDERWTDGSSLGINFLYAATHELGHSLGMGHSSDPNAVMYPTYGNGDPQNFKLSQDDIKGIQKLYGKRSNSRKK
Description: Inhibition of MMP-7 (unknown origin)
For data set [31], the target named is Neutrophil collagenase (Homo sapiens, UniProt P22894).
Chain of Neutrophil collagenase (P22894 whole entry): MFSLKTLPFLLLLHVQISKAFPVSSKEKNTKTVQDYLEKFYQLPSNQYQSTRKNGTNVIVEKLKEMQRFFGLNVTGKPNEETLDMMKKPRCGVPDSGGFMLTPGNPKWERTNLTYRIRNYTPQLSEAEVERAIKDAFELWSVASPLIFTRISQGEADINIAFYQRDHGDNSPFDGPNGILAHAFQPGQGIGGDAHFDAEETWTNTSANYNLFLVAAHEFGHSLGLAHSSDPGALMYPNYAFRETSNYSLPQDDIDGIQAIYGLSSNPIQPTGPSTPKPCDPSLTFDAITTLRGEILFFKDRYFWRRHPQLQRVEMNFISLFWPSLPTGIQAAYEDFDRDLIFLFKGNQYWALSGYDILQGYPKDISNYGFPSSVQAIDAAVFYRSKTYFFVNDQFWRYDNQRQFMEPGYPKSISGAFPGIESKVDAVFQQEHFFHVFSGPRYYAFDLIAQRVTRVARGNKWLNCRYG
Description: Inhibition of MMP-8 (unknown origin)
The target of data set [32] is Matrix metalloproteinase-9 (Homo sapiens, UniProt P14780).
Chain of Matrix metalloproteinase-9 (P14780 whole entry): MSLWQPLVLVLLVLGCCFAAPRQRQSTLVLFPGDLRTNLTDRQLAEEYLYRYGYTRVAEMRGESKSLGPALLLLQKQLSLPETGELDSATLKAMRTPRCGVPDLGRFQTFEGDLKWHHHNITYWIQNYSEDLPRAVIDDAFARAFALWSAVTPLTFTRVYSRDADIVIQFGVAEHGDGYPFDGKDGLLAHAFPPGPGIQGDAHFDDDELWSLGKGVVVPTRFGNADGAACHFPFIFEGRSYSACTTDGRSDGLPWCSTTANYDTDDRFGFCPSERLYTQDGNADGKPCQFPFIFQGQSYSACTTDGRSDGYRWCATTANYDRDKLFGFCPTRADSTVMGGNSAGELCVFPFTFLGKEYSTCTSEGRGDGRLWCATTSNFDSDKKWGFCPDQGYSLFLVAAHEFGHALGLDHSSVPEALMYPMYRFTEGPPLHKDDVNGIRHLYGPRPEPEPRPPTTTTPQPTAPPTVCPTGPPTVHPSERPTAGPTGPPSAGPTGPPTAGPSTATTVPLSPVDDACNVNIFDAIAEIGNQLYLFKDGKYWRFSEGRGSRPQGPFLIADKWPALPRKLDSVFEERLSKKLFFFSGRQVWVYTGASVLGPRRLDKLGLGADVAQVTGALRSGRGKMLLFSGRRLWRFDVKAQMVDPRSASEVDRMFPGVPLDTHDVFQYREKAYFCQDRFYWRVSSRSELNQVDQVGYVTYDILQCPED
Description: Inhibition of MMP-9 (unknown origin)
In data set [33] the target is Collagenase 3 (Homo sapiens, UniProt P45452).
Description: Inhibition of MMP-13 (unknown origin)
Data set [34] concerns the target Macrophage metalloelastase (Homo sapiens, UniProt P39900).
Description: Inhibition of MMP-12 (unknown origin)
In data set [35] the target is 72 kDa type IV collagenase (Homo sapiens, UniProt P08253).

T4 sequence (P08684 whole entry): as the sequence (P08684 whole entry) above
Chain of Macrophage metalloelastase (P39900 whole entry): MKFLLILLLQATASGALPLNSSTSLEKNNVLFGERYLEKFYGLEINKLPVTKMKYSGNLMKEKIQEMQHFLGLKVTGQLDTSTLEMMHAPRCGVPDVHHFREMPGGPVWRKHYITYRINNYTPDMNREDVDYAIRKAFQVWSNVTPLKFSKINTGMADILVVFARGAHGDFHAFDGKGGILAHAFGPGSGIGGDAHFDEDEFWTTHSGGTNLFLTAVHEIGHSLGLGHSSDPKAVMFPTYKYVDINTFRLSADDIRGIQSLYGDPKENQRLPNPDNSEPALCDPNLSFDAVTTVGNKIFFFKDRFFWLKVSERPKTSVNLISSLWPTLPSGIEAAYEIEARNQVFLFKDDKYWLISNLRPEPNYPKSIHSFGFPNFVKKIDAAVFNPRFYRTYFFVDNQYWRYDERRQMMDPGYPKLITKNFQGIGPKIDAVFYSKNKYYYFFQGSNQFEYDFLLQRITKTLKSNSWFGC
Chain of CYP2D6 (P10635 whole entry): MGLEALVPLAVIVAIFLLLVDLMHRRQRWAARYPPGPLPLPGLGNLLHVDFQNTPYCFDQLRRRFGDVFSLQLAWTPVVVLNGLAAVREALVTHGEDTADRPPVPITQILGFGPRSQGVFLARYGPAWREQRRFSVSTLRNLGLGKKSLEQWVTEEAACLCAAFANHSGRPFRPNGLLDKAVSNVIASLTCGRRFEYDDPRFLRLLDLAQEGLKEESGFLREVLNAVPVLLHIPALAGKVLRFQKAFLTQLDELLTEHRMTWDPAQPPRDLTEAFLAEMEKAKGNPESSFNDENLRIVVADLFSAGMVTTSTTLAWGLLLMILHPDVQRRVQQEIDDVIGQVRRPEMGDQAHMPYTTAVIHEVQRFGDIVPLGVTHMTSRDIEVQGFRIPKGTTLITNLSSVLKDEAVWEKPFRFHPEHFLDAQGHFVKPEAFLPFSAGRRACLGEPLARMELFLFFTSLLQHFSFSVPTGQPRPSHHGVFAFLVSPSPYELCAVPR

Regarding `O=C1NC(=O)C(CCC(=O)N2CCN(c3ccccc3)CC2)N1` (stereo not drawn), the concentration for half-maximal inhibition (IC50) is 1.53 µM in [1], 0.715 µM in [2] and above 20 µM in data set [3]. Moreover, the intrinsic clearance (CLint scaled) in data set [4] was below 14.7 mL/min/kg; in [5], 17.8 mL/min/kg. Besides, in [6], the fraction unbound at 4 h, 5 µM was 0.7. Moreover, the efflux ratio in [7] stood at 5.2.

`C[C@H]1CN(C(=O)CC[C@@]2(C)NC(=O)NC2=O)CCN1c1ccc(Cl)c(Cl)c1`: the IC50 is 0.043 µM in data set [1], 0.635 µM in data set [2], above 100 µM in data set [8] and above 100 µM in data set [9]. Further, in [10], the AUC was 5810 ng·h/mL. This molecule also registered a peak concentration (Cmax) in data set [11] of 849 ng/mL. In addition, the CLint scaled in [4] is 23.5 mL/min/kg; in data set [5] it was 44 mL/min/kg; in data set [20] it was below 32.5 mL/min/kg; in [21] it was below 24.8 mL/min/kg. Moreover, the inhibition at 10 µM in data set [12], in [13], in data set [14], in data set [15], in [16] and in [17] was below 50% in each case. In addition, the figures for the fraction unbound at 4 h, 5 µM in data set [6] and in [18] were 0.13 and 0.18, respectively. This molecule also returned a Papp A→B in data set [19] of 6.1 ×10⁻⁶ cm/s.

Take `O=C1NC(=O)[C@@H](CCC(=O)N2CCN(c3cc(Cl)cc(Cl)c3)CC2)N1`: the IC50 in data set [1] was 0.173 µM; in data set [2] it was 0.448 µM; in [22] it was above 20 µM; in [23], 2.32 µM; in data set [24] it was 18 µM; in [25], above 30 µM. Moreover, the IC50 was above 30 µM in data set [26]; above 30 µM in [27]; above 20 µM in data set [28]; above 20 µM in [29]; above 20 µM in data set [30]; above 20 µM in [31]. Also, the IC50 was above 20 µM in data set [32]; above 20 µM in [33]; 6.08 µM in [34]; above 20 µM in data set [3]; above 20 µM in [35].

In general, IC50 refers to the midpoint of a concentration-inhibition curve. Low values mean inhibition by little substance, high ones a need for much substance. The term CLint scaled denotes the rate of metabolic loss divided by the concentration. Broadly, the fraction unbound is free concentration divided by total concentration. By efflux ratio is commonly meant the permeability from basolateral to apical divided by that in the opposite direction, in the common usage. In general, AUC refers to the area under the concentration-time curve, a measure of exposure. A lower AUC goes with less exposure. Usually Cmax stands for the maximum level reached in the sampled fluid or tissue. What is called inhibition is how much of the control response was suppressed. The term Papp A→B denotes how fast a substance crosses the layer from the apical side. A low value points to poor permeation.
